Data as given in patent US4933365A, “Phospholipase A2 inhibitors” (American Home Products Corporation, priority 1989, dated 1990).

Tests used:
[1] = tested on: vascular cutaneous permeability induced by snake venom PLA2 (Naja mocambique mocambique PLA2); experiment: reduction of vascular cutaneous permeability induced by snake venom PLA2; type: in vivo, guinea pig (male Hartley); settings: for % Inhibition: standard drug
carrageenan paw edema = experiment: rat carrageenan paw edema; type: in vivo, rat (male Sprague-Dawley); settings: po, 3 h, read-out: Oral ED50 (95% C.L.)
Method: The compounds in the scope of the invention are further tested in the rat carrageenan paw edema to determine their ability to inhibit the acute inflammatory response.
This assay is carried out as follows:
[…] male Sprague-Dawley rats, in groups of 6 animals are injected subcutaneously in the right paw with 0.1 ml of 1% carrageenan at zero time. Mercury plethysmographic readings (ml) of the paw made at zero time and 3 hours later. Test compounds are suspended or dissolved in 0.5% methylcellulose and given perorally 1 hour prior to carrageenan administration.
The increase in paw volume (edema in ml.) produced by the carrageenan is measured. Paw edema is calculated (3 hour volume minus zero time volume), and percent inhibition of edema is determined. Unpaired Student's t-test is used to determine statistical significance.

[2] = tested on: synthesis of the arachidonic acid cyclooxygenase oxidation product TxB2; experiment: inhibition of TxB2 synthesis (cyclooxygenase) by rat PMN; type: cell-based, rat (female Wistar); settings: A23187 stimulated rat PMN
Method: Rat polymorphonuclear leukocytes (PMNs) are obtained from female Wistar rats (150-200 g) which receive an injection of 6% glycogen (10 ml i.p.). Rats are sacrificed 18-24 hours post injection by CO2 asphyxiation and the elicited cells are harvested by peritoneal lavage using physiological saline (0.9% NaCl). The exudate is centrifuged at 400×g for 10 minutes. The supernatant fluid is discarded and the cell pellet is resuspended to concentration of 2.0×10^7 cells/ml in HBSS containing Ca^++ and Mg^++ and 10 μM L-cysteine.
To 1 ml aliquots of cell suspension, test drugs or vehicle are added, then preincubated at 37° C. for 10 minutes. A23187 (1 μM) and [^3 H]-AA (3.0 μCi/ml) are then added and the samples are further incubated for 10 minutes. The reaction is terminated by centrifugation and pelleting cells. Supernatants are then analyzed by HPLC analysis on a 15 cm ×4.6 mm ID Supelcosil LC-18 (Supelco)(3M) column, using a two solvent system at a flow rate of 1.4 ml total flow as follows:
Injections: 150 μl of each supernatant is injected directly onto column and ^3 H arachidonic acid metabolites are monitored using an on-line radioactivity detector (Ramona, IN/US, Fairfield, N.J.).
Co-chromatography with standard [^3 H] leukotriene B4 (LTB4) in medium of stimulated PMN exposed to drug is compared to that found in medium of stimulated cells exposed to no drug, generating percent inhibition.
Results are expressed as percent inhibition at a given compound dose.
In this assay, the procedure of Example 13 is carried out as described. However, in order to determine cyclooxygenase activity, the samples are co-chromatographed with authentic reference [^3 H]--TxB2.
The results are calculated as in Example 13 and present below: […]

[3] = tested on: oxazolone-induced contact hypersensitivity in the mouse ear; experiment: oxazolone-induced contact hypersensitivity in the mouse ear; type: in vivo, mouse (female Swiss Webster); settings: dosed at 1 mg/ear
Method: The assay of this Example measures the ability of the compound in the scope of the invention to inhibit oxazolone-induced contact hypersensitiveity in the mouse ear.
The assay is carried out as follows:
Female, Swiss Webster mice (8 weeks old) are placed into groups of 6 and the abdominal area of each is shaved. The mice are sensitized to oxazolone (4-ethoxymethylene-2-phenyl-oxazol-5-one) by applying 100 μl of a 2% solution in 95% alcohol directly onto the shaved abdomen using an automatic pipette and rubbing the residual oxaxolone into the skin with a round wooden stick. Six days after sensitization each mouse is challenged by applying 20 μl if a 2% oxazolone solution in 95% alcohol to the right ear (10 μl of alcohol alone to the left ear. Compounds for topical applications are prepared in acetone and administered to the right ear 30 min after challenge or 30 min prior to and 5 h after challenge; acetone (vehicle) is applied to the left ear. Compounds for oral administration are suspended in 0.5 ml of 0.5% methyl cellulose and given ten min prior to challenge. Ear thickness of both ears is measured in mm×10^- 2 at 24 and 48 h after challenge using an Oditest caliper. Edema is calculated by subtracting the left ear thickness from the right ear thickness. Drug effects are determined by calculating the percentage change from control for each time period.

COC(=O)C1(C(F)=CCCCOc2ccc(Cl)cc2)CO1 (stereo not drawn) [6 (fluoro-vinyl compound), 2-[5-(4-Chlorophenoxy)-1-fluoro-1-pentenyl]-2-oxiranecarboxylic acid methyl ester]
% Inhibition, iv at 100 mg/kg [1]: 32%

CC(=O)Oc1ccccc1C(=O)O [Aspirin]
ED50 (carrageenan paw edema): 145 mg/kg

NC1=NN(c2cccc(C(F)(F)F)c2)CC1 [BW 755c]
% Inhibition ([1]; 200 mg/kg p.o.): 65.3%

CN(C)CCC(c1ccc(Cl)cc1)c1ccccn1 (stereo not drawn) [Chlorpheniramine]
% Inhibition ([1]; 2 mg/kg p.o.): 45.0%

C[C@@H]1C[C@H]2[C@@H]3CCC4=CC(=O)C=C[C@]4(C)[C@@]3(F)[C@@H](O)C[C@]2(C)[C@@]1(O)C(=O)CO [Dexamethasone]
% Inhibition ([1]; 10 mg/kg p.o.): 49.0%

COC(=O)C1(C(=O)CCCCOc2ccc(Cl)cc2)CO1 (stereo not drawn) [Example 6A, 2-[5-(4-Chlorophenoxy)-1-oxopentyl]-2-oxiranecarboxylic acid methyl ester]
inhibition at 10 µM [2]: 30%

COC(=O)C1(C(=O)CCCCc2ccccc2)CO1 (stereo not drawn) [Example 9, 2-(5-Phenyl-1-oxopentyl)-2-oxiranecarboxylic acid methyl ester]
% Inhibition [3]: 22.0% | inhibition at 10 µM [2]: 1%

CCOC(=O)C1(CCCCCc2ccc(Cl)cc2)CO1 (stereo not drawn) [Example 10, 2-[5-(4-Chlorophenyl)pentyl]-2-oxiranecarboxylic acid ethyl ester]
% Inhibition, iv at 100 mg/kg [1]: 24.1% | inhibition at 10 µM [2]: 4%

COc1ccc2c(c1)c(CC(=O)O)c(C)n2C(=O)c1ccc(Cl)cc1 [Indomethacin]
% Inhibition ([1]; 50 mg/kg p.o.): 15.0% | ED50 (carrageenan paw edema): 3.7 mg/kg
